In assay [1] the test system is cellular calpains in C2C12 myoblasts. Briefly: Calpain inhibition assay in C2C12 myoblasts. The format is cell-based. The settings on record: 2 h incubation, calcium ionophore Br-A-23187, read-out: Calp I IC50 Myoblast. The procedure, abridged:
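Confluent C2C12 myoblasts in fusion medium (DMEM, 5% horse serum) exposed to compound for 2 h at 37 °C, then loaded with 400 μM Suc-Leu-Tyr-AMC for 20 min at room temperature in buffer with 4 mM CaCl2, HEPES pH 7.25. Calpains activated by Br-A-23187 ionophore (20 μM in added buffer); AMC fluorescence read each minute for 60 min at 37 °C to derive IC50.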

In assay [2] the test system is Primary fibroblasts from donors with Friedreich Ataxia (FRDA). Nature of the assay: BSO assay (cell viability under BSO-induced oxidative stress). As to conditions: Homo sapiens, Fibroblast, 24 h preincubation, 1 mM BSO. The format is cell-based, human. Summed up: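 FRDA patient primary fibroblasts were pretreated with compounds for 24 h, then exposed to 1 mM BSO (final) until toxicity appeared in BSO-only controls (typically 16–48 h). Viability was read by calcein AM (1.2 μM)/ethidium homodimer (4 μM) staining, 60 min RT, fluorescence 485/525 nm.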

A further assay concerns the target T1, 20S Proteasome (Oryctolagus cuniculus, UniProt G1T4Q9).
T1 sequence (G1T4Q9 1-263): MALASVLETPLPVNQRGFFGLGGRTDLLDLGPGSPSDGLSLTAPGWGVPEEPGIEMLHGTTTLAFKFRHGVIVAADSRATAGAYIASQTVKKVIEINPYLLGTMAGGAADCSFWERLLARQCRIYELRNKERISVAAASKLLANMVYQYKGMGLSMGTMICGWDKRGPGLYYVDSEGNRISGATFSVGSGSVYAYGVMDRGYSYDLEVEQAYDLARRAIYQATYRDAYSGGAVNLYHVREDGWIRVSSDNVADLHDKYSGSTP
Briefly: 20S Proteasome assay. As to conditions: substrate Suc-Leu-Leu-Val-Tyr-AMC; read-out: 20S Prot IC50. The format is biochemical, Rabbit. The procedure: 25 μl of a reaction buffer containing 400 μM of the fluorogenic substrate Suc-Leu-Leu-Val-Tyr-AMC (Bachem) are dispensed per well of a white microtiter plate. Test compounds dissolved in 0.5 μl DMSO are added. To start the reaction; 25 μl of reaction buffer containing 35 ng of enzyme (20S Proteasome, Rabbit, Calbiochem) are added. The increase in fluorescence (excitation at 360 nm; emission at 440 nm) is measured over 30 min at 30° C. at 30″. The IC50's are then determined from the slopes.

For `CCNC(=O)C(=O)[C@H](Cc1ccc(Br)cc1)NC(=O)[C@H](CC(C)C)NC(=O)CCCCC1CCSS1` (stereo partly drawn) [Example 64], the IC50 (usually the concentration that inhibits the measured activity by half) in assay [1] turned out to be 500 nM; on 20S Proteasome, 40 nM. Further, the midpoint of the response in assay [2], the EC50, lay at 1000 nM.

These data come from patent US20060258598A1, “Alpha-keto carbonyl calpain inhibitors” (priority 2003, published 2006).
